Columns and labels:
[1] = biological target: Cyclin-dependent kinase 2/cyclin A (Homo sapiens, UniProt P24941); assay: In vitro inhibitory concentration against cyclin-dependent kinase 2-cyclin A complex using ATP/P33gamma-ATP mix as radioligand; assay type: protein-complex assay
[2] = test system: A2780; assay: Antiproliferative activity against human A2780 cells; assay type: functional, cell-based

| IC50 [1] [nM] | IC50 [2] [nM] | Compound |
| --- | --- | --- |
| 705 |  | COc1ccc(C(=O)Nc2cc(C3CC3)[nH]n2)cc1 |
| 90 |  | O=C(Nc1cc(C2CCC2)[nH]n1)c1ccc(Br)cc1 |
| 4 | 1470 | NC(=O)c1ccc(-c2ccc(CC(=O)Nc3cc(C4CC4)[nH]n3)cc2)cc1 |
| > 10000 |  | CCC(C)c1cc(NC(=O)c2ccc(Br)cc2)[nH]n1 (stereo not given) |
| 11 | > 20000 | O=C(Cc1ccc(-c2ccc(C(=O)O)cc2)cc1)Nc1cc(C2CC2)[nH]n1 |
| > 10000 |  | O=C(Nc1cc(-c2ccccc2)[nH]n1)c1ccc(Br)cc1 |
| 650 |  | CCCc1cc(NC(=O)c2ccc(Br)cc2)n[nH]1 |
| 4 | 182 | O=C(Cc1ccc(-c2cccc(F)c2)cc1)Nc1cc(C2CC2)[nH]n1 |
| 9 | 205 | Cc1cccc(-c2ccc(CC(=O)Nc3cc(C4CC4)[nH]n3)cc2)c1 |
| 48 | 1400 | O=C(Cc1ccccc1)Nc1cc(C2CC2)[nH]n1 |
|  | > 20000 | COc1cccc(CC(=O)Nc2cc(C3CC3)[nH]n2)c1 |
| 1500 |  | Cc1cc(NC(=O)c2ccccc2)n[nH]1 |
| > 10000 |  | CCCC(=O)Nc1cc(C)[nH]n1 |
| 34 |  | O=C(Nc1cc(C2CC2)[nH]n1)c1ccc(Br)cc1 |
|  | 111 | O=C(Cc1ccc(-c2ccccc2)cc1)Nc1cc(C2CC2)[nH]n1 |
| 83 |  | O=C(Nc1cc(C2CC2)[nH]n1)c1ccc(Cl)c(Cl)c1 |
| > 10000 |  | COc1ccccc1C(=O)Nc1cc(C2CC2)[nH]n1 |
|  | 6980 | O=C(Cc1ccc(OCCN2CCCC2)cc1)Nc1cc(C2CC2)[nH]n1 |
| > 10000 |  | CC(C)(C)c1cc(NC(=O)c2ccc(Br)cc2)n[nH]1 |
| 74 | 2840 | NC(=O)c1ccc(CC(=O)Nc2cc(C3CC3)[nH]n2)cc1 |
| 1000 |  | O=C(Nc1cc(C2CC2)[nH]n1)c1cccc(Cl)c1 |
|  | 900 | O=C(Cc1cccc2ccccc12)Nc1cc(C2CC2)[nH]n1 |
| > 10000 |  | O=C(Nc1cc(C2CC2)[nH]n1)c1c(Cl)cccc1Cl |
| 1000 |  | O=C(Nc1cc(C2CCCCC2)[nH]n1)c1ccc(Br)cc1 |
| 500 |  | O=C(Nc1cc(C2CC2)[nH]n1)c1cccc(C(F)(F)F)c1 |
| 50 |  | O=C(Nc1cc(C2CCCC2)[nH]n1)c1ccc(Br)cc1 |
| 600 |  | COc1cccc(C(=O)Nc2cc(C3CC3)n[nH]2)c1 |
| > 10000 |  | O=C(Nc1cc(Cc2ccccc2)[nH]n1)c1ccc(Br)cc1 |
| 200 |  | CC(C)c1cc(NC(=O)c2ccc(Br)cc2)n[nH]1 |

Source: ChEMBL document CHEMBL1148336, “3-Aminopyrazole inhibitors of CDK2/cyclin A as antitumor agents. 1. Lead finding” (J Med Chem, 2004)
